# Laboratory results taken from ChEMBL document CHEMBL1156646, “Natural products chemistry and taxonomy of the marine cyanobacterium Blennothrix cantharidosmum” (J Nat Prod, 2008).
# Activity calls are given as the source filed them. The rule behind the calls is not given here.
# Assays:
# Plasmodium falciparum [1] = test: Antimalarial activity against Plasmodium falciparum at 10 ug/ml; type: functional, organism-based
# Plasmodium falciparum [2] = test: Antimalarial activity against Plasmodium falciparum; type: functional, organism-based
# Vibrio harveyi = test: Inhibition of bioluminescence in wild type Vibrio harveyi BB120 by quorum sensing assay; type: functional, organism-based, Vibrio harveyi ATCC BAA-1116
IC50 (Plasmodium falciparum [2]),IC50 (Vibrio harveyi),Compound,Activity (Plasmodium falciparum [1])
,,CCCCCCC/C=C(\C)[C@@H](O)[C@@H](C)C(=O)N1CCC[C@H]1C(=O)O,inactive
,,CCCCCCCC[C@H](C)C(=O)N1CCC[C@H]1C(=O)O,inactive
,,CCCCCCCC[C@H](C)C(=O)N1CCC[C@H]1C(=O)O[C@@H](C(=O)O[C@H](C(=O)O)C(C)C)C(C)C,inactive
2 µM,,CCCC[C@H](C)C[C@H](C)C(=O)N1CCC[C@H]1C(=O)O[C@@H](C(=O)O[C@H](C(=O)O)[C@@H](C)CC)[C@@H](C)CC [TUMONOIC ACID I],
,,CCCCCCCC[C@H](C)C(=O)N1CCC[C@H]1C(=O)O[C@@H](C(=O)O[C@@H](C)C(=O)O)[C@@H](C)CC,inactive
,,CCCCC(C)/C=C(\C)[C@H](O)[C@H](C)C(=O)N1CCC[C@H]1C(=O)O (stereo partly drawn),inactive
,62 µM,CCCCCCCCC(C)[C@H](OC(C)=O)[C@H](C)C(=O)N1CCC[C@H]1C(=O)O (stereo partly drawn) [TUMONOIC ACID F],inactive
